Test results published in patent US9139548B2, “Polycyclic derivatives, preparation process and pharmaceutical use thereof” (Jiangsu Hengrui Medicine Co., Ltd., priority 2012, dated 2015).

Experiments:
[1] = molecular target: T1, GPR40 (Homo sapiens, UniProt O14842); assay: Agonist activity on CHO-K1/GPR40 cell (Fluo-4 calcium fluorescence); type: cell-based; conditions: CHO-K1 cell line expressing GPR40, calcium ion fluorescence
T1 construct: host or cells: CHO-K1 (Cell bank of the Chinese Academy of Sciences, GNHa 7), retrovirus infection
Excerpt: Agonist activity of compounds of the present disclosure on CHO-K1/GPR40 cell.
The following method was used to determine the agonist activity of compounds of the present disclosure on GPR40. The experiment process is described as follows:
CHO-K1/GPR40 cell (CHO-K1 cell line expressing GPR40, which was constructed using retrovirus infection method, CHO-K1/GPR40 cell for short, wherein CHO-K1 cell was purchased from Cell bank of the Chinese Academy of Sciences, catalogue number GNHa 7; GPR40 cDNA was purchased from Guangzhou FulenGen Co., Ltd, catalogue number EX-UO270-MO2) was inoculated in a 96-well plate with an inoculation density of 25000 cells/well. The cell plate was incubated at 37° C. and 5% CO2 for 24 hours. The cell culture fluid was discarded during the experiment, the cells were washed with buffer solution (1×HBSS+20 mM HEPES pH 7.4) once, 100 μL of Fluo-4 calcium ion dye was quickly added into each well, incubated at 37° C. in the dark for 30 minutes, and then at room temperature for another 30 minutes. During the determination, the baseline value of each well was read at first, and then different concentrations of drug were added to the wells (50 μL/well), and the fluorescence values were then read. The fluorescence excitation wavelength was 494 nm and the emission wavelength was 516 nm. The increase of fluorescence intensity was proportional to calcium ion level in the cells. Cell response rate of each cell/(The maximum fluorescence value−The minimum fluorescence value)/The minimum fluorescence value. EC50 values of the compounds were calculated

[2] = tested on: ICR mice fed on a high fat diet; assay: Oral glucose tolerance test (OGTT) in glucose load mice fed on a high fat diet; type: in vivo; conditions: blood glucose AUC, high fat diet ICR male mice
Procedure: ICR mice fed on a high fat diet were used as test animals. The effect of oral administration of a single dose of the compounds of the present disclosure on oral glucose tolerance test (OGTT) of glucose load mice was studied.
Compounds of Example 1, Example 2, Example 13, Example 16, Example 18, Example 19 and Example 26
Healthy ICR male mice were purchased from SINO-BRITSH SIPPR/BK LAB. ANIMAL LTD., CO, License number: SCXK (Shanghai) 2008-0016
The test compounds were added to aqueous 0.5% CMC-Na solution to prepare the corresponding concentration suspension using microwave.
After an overnight fast for 16 hours, male mice fed on a high fat diet were weighed, and the basic blood glucose was determined. The mice were randomly divided into a Blank group and the group of each test compound of the present disclosure according to the level of blood glucose.
The dosage of administration was 20 mg/kg or 40 mg/kg, and the Blank group was administered aqueous 0.5 CMC-Na solution.
20% Glucose solution was administered 15 minutes after intragastrical administration (each mouse was administered 0.4 mL)
The compounds were administered according to the aforesaid dosage to determine the blood glucose value (−15 minutes).
At 15 minutes after administration, 20% glucose solution was administrated at a dose of 2 g/kg and the blood glucose values at 0, 15, 30, 45, 60 and 120 minutes in each mouse were determined by Roche Accu-Chek blood glucose monitoring meter.
Using Excel statistical software: the average value was calculated with avg; SD value was calculated with STDEV; and P value of difference among groups was calculated with TTEST. • AUC calculation formula: AUC=(t15min+t0min)×0.25/2+(t30min+t15min)×0.25/2+(t45min+t30min)×0.25/2+(t60min+t45min)×0.25/2+(t120min+t60min)×1/2 • Wherein t0min, t15min, t30min, t45min, t60min, t120min were blood glucose values determined at different time points.

T1 sequence (O14842 whole entry): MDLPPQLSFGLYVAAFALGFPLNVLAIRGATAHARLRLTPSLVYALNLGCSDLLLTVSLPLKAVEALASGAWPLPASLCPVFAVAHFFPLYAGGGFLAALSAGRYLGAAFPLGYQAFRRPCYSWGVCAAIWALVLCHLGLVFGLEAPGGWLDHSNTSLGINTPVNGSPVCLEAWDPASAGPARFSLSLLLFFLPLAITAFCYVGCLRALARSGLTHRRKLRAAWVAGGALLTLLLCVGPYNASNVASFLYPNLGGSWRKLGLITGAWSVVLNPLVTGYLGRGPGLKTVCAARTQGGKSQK

SMILES	EC50 [1]	AUC decrease rate % ([2]; single oral dose 40 mg/kg)	AUC decrease rate % ([2]; single oral dose 20 mg/kg)
Cc1cc(O[C@@H]2CCC[C@H]2O)cc(C)c1-c1cccc(COc2ccc3c(c2)OC[C@H]3CC(=O)O)c1 (mixture of isomers) [Example 17, 2-((S)-6-((4′-(((1R,2R)/(1S,2S)-2-Hydroxycyclopentyl)oxy)-2′,6′-dimethylbiphenyl-3-yl)methoxy)-2,3-dihydrobenzofuran-3-yl)acetic acid]	157 nM		
Cc1cc(OC2CCNCC2)cc(C)c1-c1cccc(COc2ccc3c(c2)OC[C@H]3CC(=O)O)c1 [Example 4, (S)-2-(6-((2′,6′-Dimethyl-4′-(piperidin-4-yloxy)biphenyl-3-yl)methoxy)-2,3-dihydrobenzofuran-3-yl)acetic acid]	81 nM		
Cc1cc(OC2CCN(S(C)(=O)=O)CC2)cc(C)c1-c1cccc(COc2ccc3c(c2)OC[C@H]3CC(=O)O)c1 [Example 5, (S)-2-(6-((2′,6′-Dimethyl-4′-((1-(methylsulfonyl)piperidin-4-yl)oxy)biphenyl-3-yl)methoxy)-2,3-dihydrobenzofuran-3-yl)acetic acid]	107 nM		
Cc1cc(O[C@H]2CCN(S(C)(=O)=O)C2)cc(C)c1-c1cccc(COc2ccc3c(c2)OC[C@H]3CC(=O)O)c1 [Example 8, 2-((S)-6-((2′,6′-Dimethyl-4′-(((S)-1-(methylsulfonyl)pyrrolidin-3-yl)oxy)biphenyl-3-yl)methoxy)-2,3-dihydrobenzofuran-3-yl)acetic acid]	88 nM		
Cc1cc(OC2CCCC2)cc(C)c1-c1cccc(COc2ccc3c(c2)OC[C@H]3CC(=O)O)c1 [Example 10, (S)-2-(6-((4′-(Cyclopentyloxy)-2′,6′-dimethylbiphenyl-3-yl)methoxy)-2,3-dihydrobenzofuran-3-yl)acetic acid]	134 nM		
Cc1cc(O[C@@H]2CCN(S(C)(=O)=O)C2)cc(C)c1-c1cccc(COc2ccc3c(c2)OC[C@H]3CC(=O)O)c1 [Example 11, 2-((S)-6-((2′,6′-Dimethyl-4′-(((R)-1-(methylsulfonyl)pyrrolidin-3-yl)oxy)biphenyl-3-yl)methoxy)-2,3-dihydrobenzofuran-3-yl)acetic acid]	73 nM		
Cc1cc(O[C@H]2CCOC2)cc(C)c1-c1cccc(COc2ccc3c(c2)OC[C@H]3CC(=O)O)c1C [Example 12, 2-((S)-6-((2,2′,6′-Trimethyl-4′-(((S)-tetrahydrofuran-3-yl)oxy)biphenyl-3-yl)methoxy)-2,3-dihydrobenzofuran-3-yl)acetic acid]	113 nM		
Cc1cc(OC2CNC2)cc(C)c1-c1cccc(COc2ccc3c(c2)OC[C@H]3CC(=O)O)c1 [Example 16, (S)-2-(6-((4′-(Azetidin-3-yloxy)-2′,6′-dimethylbiphenyl-3-yl)methoxy)-2,3-dihydrobenzofuran-3-yl)acetic acid]	15 nM	15.72%	
Cc1cc(O[C@H]2CCOC2)cc(C)c1-c1ccc(F)c(COc2ccc3c(c2)OC[C@H]3CC(=O)O)c1 [Example 18, 2-((S)-6-((4-Fluoro-2′,6′-dimethyl-4′-(((S)-tetrahydrofuran-3-yl)oxy)biphenyl-3-yl)methoxy)-2,3-dihydrobenzofuran-3-yl)acetic acid]	28 nM	44.13%	
Cc1cc(O[C@H]2CCOC2)c(F)c(C)c1-c1cccc(COc2ccc3c(c2)OC[C@H]3CC(=O)O)c1 [Example 19, 2-((S)-6-((3′-Fluoro-2′,6′-dimethyl-4′-(((S)-tetrahydrofuran-3-yl)oxy)biphenyl-3-yl)methoxy)-2,3-dihydrobenzofuran-3-yl)acetic acid]	55 nM	36.78%	
Cc1cc(OC2CN(C(=O)[C@H](C)O)C2)cc(C)c1-c1cccc(COc2ccc3c(c2)OC[C@H]3CC(=O)O)c1 [Example 20, 2-((S)-6-((4′-((1-((S)-2-hydroxypropanoyl)azetidin-3-yl)oxy)-2′,6′-dimethylbiphenyl-3-yl)methoxy)-2,3-dihydrobenzofuran-3-yl)acetic acid]	140 nM		
Cc1cc(OC2CN(C(=O)CO)C2)cc(C)c1-c1cccc(COc2ccc3c(c2)OC[C@H]3CC(=O)O)c1 [Example 21, (S)-2-(6-((4′-((1-(2-hydroxyacetyl)azetidin-3-yl)oxy)-2′,6′-dimethylbiphenyl-3-yl)methoxy)-2,3-dihydrobenzofuran-3-yl)acetic acid]	131 nM		

Further lines, with some results ahead:

EC50 [1]	SMILES	AUC decrease rate % ([2]; single oral dose 40 mg/kg)	AUC decrease rate % ([2]; single oral dose 20 mg/kg)
77 nM	Cc1cc(OC2CCN(C(=O)[C@H](C)O)CC2)cc(C)c1-c1cccc(COc2ccc3c(c2)OC[C@H]3CC(=O)O)c1 [Example 22, 2-((S)-6-((4′-((1-((S)-2-hydroxypropanoyl)piperidin-4-yl)oxy)-2′,6′-dimethylbiphenyl-3-yl)methoxy)-2,3-dihydrobenzofuran-3-yl)acetic acid]		
141 nM	COC(=O)N1CCC(Oc2cc(C)c(-c3cccc(COc4ccc5c(c4)OC[C@H]5CC(=O)O)c3)c(C)c2)CC1 [Example 23, (S)-2-(6-((4′-((1-(methoxycarbonyl)piperidin-4-yl)oxy)-2′,6′-dimethylbiphenyl-3-yl)methoxy)-2,3-dihydrobenzofuran-3-yl)acetic acid]		
31 nM	Cc1cc(O[C@@H]2CC[C@H](O)[C@@H]2O)cc(C)c1-c1cccc(COc2ccc3c(c2)OC[C@H]3CC(=O)O)c1 [Example 25, 2-((S)-6-((4′-(((1R,2S,3S)-2,3-dihydroxycyclopentyl)oxy)-2′,6′-dimethylbiphenyl-3-yl)methoxy)-2,3-dihydrobenzofuran-3-yl)acetic acid]		
52 nM	Cc1cc(O[C@@H]2CCOC2)cc(C)c1-c1ccc(F)c(COc2ccc3c(c2)OC[C@H]3CC(=O)O)c1 [Example 26, 2-((S)-6-((4-fluoro-2′,6′-dimethyl-4′-(((R)-tetrahydrofuran-3-yl)oxy)biphenyl-3-yl)methoxy)-2,3-dihydrobenzofuran-3-yl)acetic acid]	26.06%	
53 nM	Cc1ccc(-c2c(C)cc(O[C@H]3CCOC3)cc2C)cc1COc1ccc2c(c1)OC[C@H]2CC(=O)O [Example 27, 2-((S)-6-((2′,4,6′-trimethyl-4′-(((S)-tetrahydrofuran-3-yl)oxy)biphenyl-3-yl)methoxy)-2,3-dihydrobenzofuran-3-yl)acetic acid]		
82 nM	Cc1cc(O[C@@H]2CCOC2)c(F)c(C)c1-c1cccc(COc2ccc3c(c2)OC[C@H]3CC(=O)O)c1 [Example 28, 2-((S)-6-((3′-fluoro-2′,6′-dimethyl-4′-(((R)-tetrahydrofuran-3-yl)oxy)biphenyl-3-yl)methoxy)-2,3-dihydrobenzofuran-3-yl)acetic acid]		
41 nM	Cc1cc(O[C@H]2COC[C@@H]2O)cc(C)c1-c1cccc(COc2ccc3c(c2)OC[C@H]3CC(=O)O)c1 [Example 29, 2-((S)-6-((4′-(((3S,4S)-4-hydroxytetrahydrofuran-3-yl)oxy)-2′,6′-dimethylbiphenyl-3-yl)methoxy)-2,3-dihydrobenzofuran-3-yl)acetic acid]		20.41%
113 nM	Cc1cc(O[C@@H]2CCOC2)cc(C)c1-c1cccc(COc2ccc3c(c2)OC[C@@H]3CC(=O)O)c1 [Example 33, 2-((R)-6-((2′,6′-dimethyl-4′-(((R)-tetrahydrofuran-3-yl)oxy)biphenyl-3-yl)methoxy)-2,3-dihydrobenzofuran-3-yl)acetic acid]		
113 nM	Cc1cc(O[C@H]2CCOC2)cc(C)c1-c1cccc(COc2ccc3c(c2)OC[C@@H]3CC(=O)O)c1 [Example 34, 2-((R)-6-((2′,6′-dimethyl-4′-(((S)-tetrahydrofuran-3-yl)oxy)biphenyl-3-yl)methoxy)-2,3-dihydrobenzofuran-3-yl)acetic acid]		
